According to ChEMBL document CHEMBL1145448, “Synthesis and evaluation of tripodal peptide analogues for cellular delivery of phosphopeptides” (J Med Chem, 2007):
Non-standard residues stand in square brackets, D forms with d. Residues, ends and D or L forms follow the SMILES beside them. *: point of attachment. X1 = O=C(O)c1cc(C(=O)*)ccc1-c1c2ccc(=O)cc-2oc2cc(O)ccc12; pY = N[C@@H](Cc1ccc(OP(=O)(O)O)cc1)C(=O)O; 12Ado = NCCCCCCCCCCCC(=O)O

What was measured:
[1] = Cellular uptake in BT20 cells in presence of 77 mM sodium azide; type: ADME, cell-based; conditions: human, bt-20
[2] = Cytotoxicity against BT20 cells by cell viability assay; type: cell-based; conditions: human, bt-20

Row | Activity [1] | Compound | Activity [2] [%]
1 | Active | N=C(N)NCCC[C@H](NC(=O)CCCCCCCCCCCNC(=O)[C@H](CCCNC(=N)N)NC(=O)CCCCCCCCCCCNC(=O)[C@H](CCCCN)NC(=O)CNC(=O)c1ccc(-c2c3ccc(=O)cc-3oc3cc(O)ccc23)c(C(=O)O)c1)C(=O)O (X1-GK[12Ado]R[12Ado]R-OH) | > 96
2 |  | CC[C@H](C)[C@H](NC(=O)[C@H](CCC(=O)O)NC(=O)[C@H](CCC(=O)O)NC(=O)[C@H](Cc1ccc(OP(=O)(O)O)cc1)NC(=O)CNC(=O)c1ccc(-c2c3ccc(=O)cc-3oc3cc(O)ccc23)c(C(=O)O)c1)C(=O)O (X1-G[pY]EEI-OH) | > 96
